For four compounds, viability, T/C and IC50 results are on record in PubChem BioAssay AID1963426 (Molecular Pharmacology Branch, DTP, NCI, 2024).

The test system of this assay is 186277-243-T-J2-PDC complex spheroid growth, % test/control. Nature of the assay: Anticancer human tumor 186277-243-T-J2-PDC patient-derived colon adenocarcinoma cell line growth inhibition [Asc]. The conditions noted are these: for viability, T/C: stronger effect = lower value. How it is done: Multicellular complex tumor spheroid response to apoptosis pathway targeting inhibitors Alrizomadlin, Pelcitoclax, and Dasminapant in combination with a variety of drugs and investigational agents in selected tumor cell lines
The MDM2 inhibitor alrizomadlin, the Bcl-2/Bcl-xL inhibitor pelcitoclax, and the IAPs inhibitor dasminapant were evaluated both individually and in combination with standard of care and investigational anticancer small molecules within a complex spheroid model of solid tumors. . Complex spheroids include a stromal component modeled by human endothelial cells (HUVEC) and fibroblasts modeled by human mesenchymal stem cells (MSCs). The concentration ranges selected for each drug and investigational agent were based upon clinically achievable concentrations if the clinical Cmax of the agent was known.
Compounds. The drugs and investigational agents: alrizomadlin (APG-115; NSC831270), pelcitoclax (APG-1252; NSC835773), dasminapant (APG-1387;NSC834197), TAK-243 (NSC785004), copanlisib (NSC809693), olaparib (NSC753686), talazoparib (NSC767125), cobimetinib (NSC 768068), eltanexor (KPT-8602, NSC 794443), abemaciclib (NSC 768073), sotorasib (NSC818433), adagrasib (NSC 831453), MRTX-1133 (NSC 836407), Iadademestat (ORY1001, NSC 806812), and RMC-4630 (NSC839698), were obtained from the NCI Developmental Therapeutics Program Chemical Repository. The FDA-approved anticancer drug set is available from the Developmental Therapeutics Program at https://dtp.cancer.gov/organization/dscb/obtaining/available plates.htm. […] The stock solutions were prepared in dimethyl sulfoxide (DMSO, Sigma-Aldrich, St. Louis, MO, cat. D2650) at 800-fold the tested concentration and stored at -70 degrees C prior to their use. All drugs and investigational agents were tested over a range starting from a high concentration at or near the clinical Cmax and decreasing in half-log increments. If the clinical Cmax for an agent had not been determined, the highest concentration tested was 10 microM.
The patient-derived cancer (PDC) cell lines include five colon adenocarcinomas: 186277-243-T-J2-PDC, 616215-338-R-J1-PDC, 439559-082-T-J2-PDC, 463943-066-T-J2-PDC, and 519858-162-T-J1-PDC; three pancreatic carcinomas: 323965-272-R-J2-PDC, 521955-158-R6-J3-PDC, and 521955-158-R2-J5-PDC; two uterine sarcomas: 327498-152-R-J2-PDC and 993429-296-R-J1-PDC; two rhabdomyosarcomas: 755483-174-R-J1-PDC and 772245-204-R-J1-PDC; two soft tissue sarcomas: 126254-015-R-J1-PDC and 494315-158-R-J1-PDC; two malignant fibrous histiocytomas: 317291-083-R-J1-PDC and 596521-263-R-J1-PDC; two breast carcinomas: 171881-019-R-J1-PDC and 885512-296-R-J2-PDC; and one ovarian carcinoma: 6556581-035-R-J-PDC were obtained from the NCI PDMR, (https://pdmr.cancer.gov). The established cell lines HSSY-2 synovial sarcoma (RRID:CVCL 8719), SYO-1 synovial sarcoma (RRID:CVCL_7146), MPNST malignant peripheral neural sheath tumor were obtained from the Sloan Kettering Institute. The following established cell lines were purchased from the American Type Culture Collection (ATCC, Manassas, VA), Sor the received from the NCI repository:, PANC-1 pancreatic carcinoma (CRL-1469, RRID:CVCL_0480), OVCAR-5 ovarian carcinoma (RRID:CVCL_1628), OVCAR-8 ovarian carcinoma (RRID:CVCL_1629), , MCF-7 breast carcinoma (CRL-12584, RRID:CVCL_0031), MDA-MB-231 breast carcinoma (CRL-12532, RRID:CVCL_0062), NCI-H1876 small cell lung carcinoma (CRL-5902, RRID:CVCL_1503), NCI-H510A small cell lung carcinoma (HTB-184, RRID:CVCL_1565), NCI-H1417 (CRL-5869, RRID:CVCL_1469), and NCI-H196 small cell lung carcinoma (CRL-5823, RRID:CVCL_1509). Dr. Peter Houghton (Greehey Children's Cancer Research Institute, University of Texas Health Science Center, San Antonio, TX) provided Rh-18 rhabdomyosarcoma (RRID:CVCL_1659). Pooled donor human umbilical vein endothelial cells (HUVEC, Lonza, cat. CC-2519) and human mesenchymal stem cells (hMSC, Lonza, cat. PT-2501) were purchased from Lonza (Walkersville, MD).
Cell Culture. […]

[1] abbreviates: curve of first compound, second compound 0.1 µM.
Setting [2] is: curve of first compound, second compound 0.316 µM.
Setting [3] is: curve of first compound, second compound 1 µM.
[4] abbreviates: second compound 0.1 µM, first compound 0.0316 µM.
Setting [5] is: second compound 0.1 µM, first compound 0.1 µM.
[6] abbreviates: second compound 0.1 µM, first compound 0.316 µM.
The mark [7] stands for this setting: second compound 0.1 µM, first compound 1 µM.
[8] abbreviates: second compound 0.316 µM, first compound 0.0316 µM.
Where [9] appears, read: second compound 0.316 µM, first compound 0.1 µM.
The mark [10] stands for this setting: second compound 0.316 µM, first compound 0.316 µM.
The mark [11] stands for this setting: second compound 0.316 µM, first compound 1 µM.
Setting [12] is: second compound 1 µM, first compound 0.0316 µM.
Setting [13] is: second compound 1 µM, first compound 0.1 µM.
[14] abbreviates: second compound 1 µM, first compound 0.316 µM.
[15] abbreviates: second compound 1 µM, first compound 1 µM.

The term viability, T/C denotes the result in the treated group divided by that in the control group, in per cent. In general, IC50 refers to the concentration needed to halve the response being measured.

The structures appear in SMILES notation. Where “and” joins values, the source holds several entries; their conditions need not be identical. Identical values can stand only once.
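Note: spheroids exposed to agents for 7 days.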
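Throughout, for viability, T/C: 100% = DMSO vehicle control wells.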

Regarding `COc1c(OCCCN2CCOCC2)ccc2c3n(c(=NC(=O)c4cnc(N)nc4)nc12)CCN3`, the viability, T/C by setting is: (compound 0.00316 µM) 91% and 96.2% and 93.6%; (compound 0.01 µM) 102% and 91% and 105%; (compound 0.0316 µM) 58.9% and 54.5% and 69%; (compound 0.1 µM) 35.2% and 28.6% and 56.5%; (compound 0.316 µM) 17.5% and 17% and 29.3%; (compound 1 µM) 13.2% and 11.8% and 19.8%. In addition, the IC50 (curve of compound) is 0.0522 µM and 0.0413 µM and 0.112 µM.

In the case of `COc1c(OCCCN2CCOCC2)ccc2c3n(c(=NC(=O)c4cnc(N)nc4)nc12)CCN3` + CNC(C)C(=O)NC1CN(S(=O)(=O)c2cccc(S(=O)(=O)N3CCC4CCC(C(=O)NC(c5ccccc5)c5ccccc5)N4C(=O)C(NC(=O)C(C)NC)C3)c2)CCC2CCC(C(=O)NC(c3ccccc3)c3ccccc3)N2C1=O, the 50% inhibitory concentration (IC50) reads like this: (curve of first compound, second compound 0.01 µM) 0.0723 µM; (curve of first compound, second compound 0.0316 µM) 0.0982 µM; under setting [1], 0.0821 µM; under setting [2], 0.0863 µM; under setting [3], 0.0848 µM. For the same compound, the viability, T/C is 98.5% (second compound 0.01 µM, first compound 0.00316 µM); 105% (second compound 0.01 µM, first compound 0.01 µM); 62.4% (second compound 0.01 µM, first compound 0.0316 µM); 47.4% (second compound 0.01 µM, first compound 0.1 µM); 25.2% (second compound 0.01 µM, first compound 0.316 µM); 19.6% (second compound 0.01 µM, first compound 1 µM). Besides, the viability, T/C (second compound 0.0316 µM, first compound 0.00316 µM) is 99.3%; the viability, T/C (second compound 0.0316 µM, first compound 0.01 µM) was 128%; the viability, T/C (second compound 0.0316 µM, first compound 0.0316 µM) was 77.7%; the viability, T/C (second compound 0.0316 µM, first compound 0.1 µM) is 54.3%; the viability, T/C (second compound 0.0316 µM, first compound 0.316 µM) was 24.9%; the viability, T/C (second compound 0.0316 µM, first compound 1 µM) is 19.1%. Besides, the viability, T/C (second compound 0.1 µM, first compound 0.00316 µM) is 114%; the viability, T/C (second compound 0.1 µM, first compound 0.01 µM) is 120%; the viability, T/C under setting [4] is 68.3%; the viability, T/C under setting [5] was 50.9%; the viability, T/C under setting [6] is 25.1%; the viability, T/C under setting [7] is 18.1%. Further, the viability, T/C was 108% (second compound 0.316 µM, first compound 0.00316 µM); 113% (second compound 0.316 µM, first compound 0.01 µM); 74.9% under setting [8]; 48.5% under setting [9]; 25.6% under setting [10]; 18.5% under setting [11]. Moreover, the viability, T/C was 108% (second compound 1 µM, first compound 0.00316 µM); 104% (second compound 1 µM, first compound 0.01 µM); 75.2% under setting [12]; 48.2% under setting [13]; 21.3% under setting [14]; 17.7% under setting [15].

Take `CCN1CCN(Cc2ccc(Nc3ncc(F)c(-c4cc(F)c5nc(C)n(C(C)C)c5c4)n3)nc2)CC1`: the viability, T/C is, setting by setting: (compound 0.00316 µM) 102% and 90.6% and 91.4%; (compound 0.01 µM) 88% and 106% and 84.1%; (compound 0.0316 µM) 116% and 109% and 93.2%; (compound 0.1 µM) 116% and 108% and 112%; (compound 0.316 µM) 99.9% and 99.1% and 127%; (compound 1 µM) 97.2% and 98.6% and 123%. Moreover, the IC50 (curve of compound) is above 1 µM.

As to `C=CC(=O)N1CCN(c2nc(=O)n(-c3c(C)ccnc3C(C)C)c3nc(-c4c(O)cccc4F)c(F)cc23)C(C)C1` (centres undefined) + Cc1c(S(C)(=O)=O)c(-c2cc(F)cc(N3CCN(c4ccc(NS(=O)(=O)c5ccc(NC(CCN6CCC(C(=O)OCCCP(=O)(O)O)CC6)CSc6ccccc6)c(S(=O)(=O)C(F)(F)F)c5)cc4)CC3)c2)c(-c2ccc(Cl)cc2)n1C(C)C, the IC50 under setting [1] was above 10 µM; the IC50 under setting [2] was above 10 µM; the half-inhibitory concentration (IC50) under setting [3] was above 10 µM; the 50% inhibitory concentration (IC50) (curve of first compound, second compound 3.16 µM) is above 10 µM; the IC50 (curve of first compound, second compound 10 µM) was above 10 µM. The viability, T/C by setting is: under setting [4], 120%; under setting [5], 105%; under setting [6], 105%; under setting [7], 108%; (second compound 0.1 µM, first compound 3.16 µM) 116%; (second compound 0.1 µM, first compound 10 µM) 113%. The viability, T/C under setting [8] was 111%; the viability, T/C under setting [9] is 104%; the viability, T/C under setting [10] is 104%; the viability, T/C under setting [11] is 104%; the viability, T/C (second compound 0.316 µM, first compound 3.16 µM) was 119%; the viability, T/C (second compound 0.316 µM, first compound 10 µM) is 116%. The viability, T/C under setting [12] was 128%; the viability, T/C under setting [13] is 115%; the viability, T/C under setting [14] is 100%; the viability, T/C under setting [15] is 116%; the viability, T/C (second compound 1 µM, first compound 3.16 µM) is 119%; the viability, T/C (second compound 1 µM, first compound 10 µM) was 119%. For the same compound, the viability, T/C by setting is: (second compound 3.16 µM, first compound 0.0316 µM) 105%; (second compound 3.16 µM, first compound 0.1 µM) 123%; (second compound 3.16 µM, first compound 0.316 µM) 115%; (second compound 3.16 µM, first compound 1 µM) 111%; (second compound 3.16 µM, first compound 3.16 µM) 116%; (second compound 3.16 µM, first compound 10 µM) 116%. Further, the viability, T/C runs as follows: (second compound 10 µM, first compound 0.0316 µM) 102%; (second compound 10 µM, first compound 0.1 µM) 109%; (second compound 10 µM, first compound 0.316 µM) 102%; (second compound 10 µM, first compound 1 µM) 119%; (second compound 10 µM, first compound 3.16 µM) 104%; (second compound 10 µM, first compound 10 µM) 110%.
